Laboratory results as given in PMC11846289, “New tetrahydroisoquinolines bearing nitrophenyl group targeting HSP90 and RET enzymes: synthesis, characterization and biological evaluation” (BMC Chemistry, 2025).
≈ marks a conversion by molar mass, not a printed value. Entries after “also recorded” stand apart in the source; their conditions may differ.

Tests used:
[1] = test system: HCT116 (colon carcinoma human); assay: one spot 100 µg/ml cytotoxicity, HCT116; assay type: cell-based; details: Homo sapiens, HCT-116, percent inhibition, read-out: one spot concentration inhibition, HCT116
HEPG2 cell line = assay: MTT in vitro cytotoxicity, HEPG2; assay type: cell-based, human; details: for Selectivity Index = IC50 of HSF/IC50 of HEPG2: HSF vs HEPG2; for IC50: Homo sapiens, MTT, HEPG2, read-out: IC50 for HEPG2 ± S.D
Experimental: (§1) Using the MTT test method, the in vitro cytotoxicity of our synthesized compounds at different doses ranging from […] was examined in two cell lines, HEPG2 and MCF7, to examine 50% of the cancer cells dying.
(§2) Some of the synthesized compounds were tested as anticancer activity for the IC50 against two cell lines HEPG2 and MCF7 cells according to method. All cell lines were obtained from national cancer institute, Cairo—Egypt.

[2] = test system: HUH7 (human liver carcinoma); assay: one spot 100 µg/ml cytotoxicity, HUH7; assay type: cell-based; details: Homo sapiens, Huh-7, percent inhibition, read-out: one spot concentration inhibition, HUH7
HSF = assay: IC50 against normal cell line HSF; assay type: cell-based, human; details: Homo sapiens; normal skin cell line HSF; read-out: IC50 FOR HSF ± S.D.
[3] = test system: H460 (human lung carcinoma); assay: one spot 100 µg/ml cytotoxicity, H460; assay type: cell-based; details: Homo sapiens, NCI-H460, percent inhibition, read-out: one spot concentration inhibition, H460
[4] = test system: CACO2 (colon carcinoma human); assay: one spot 100 µg/ml cytotoxicity, CACO2; assay type: cell-based; details: Homo sapiens, Caco-2, percent inhibition, read-out: one spot concentration inhibition, CACO2
[5] = test system: HEPG2 (human liver carcinoma); assay: one spot 100 µg/ml cytotoxicity, HEPG2; assay type: cell-based; details: Homo sapiens, HepG2, percent inhibition, read-out: one spot concentration inhibition, HEPG2
[6] = test system: MG-63 (human osteosarcoma); assay: one spot 100 µg/ml cytotoxicity, MG-63; assay type: cell-based; details: Homo sapiens, MG-63, percent inhibition, read-out: one spot concentration inhibition, MG-63
[7] = test system: MCF7 (human breast carcinoma); assay: one spot 100 µg/ml cytotoxicity, MCF7; assay type: cell-based; details: Homo sapiens, MCF7, percent inhibition, read-out: one spot concentration inhibition, MCF7
[8] = test system: A549 (human lung carcinoma); assay: one spot 100 µg/ml cytotoxicity, A549; assay type: cell-based; details: Homo sapiens, A549, percent inhibition, read-out: one spot concentration inhibition, A549
HEPG2 cells [9] = assay: Cell cycle analysis by DNA flow cytometry; assay type: cell-based, human
From the text: After adding compound 3, we explore the growth inhibitory cell cycle mechanism of HEPG2 cell lines using DNA flow cytometry to examine the control and advancement of the cell cycle in HEPG2 cancer cells. […] When compound 3 was applied to HEPG2 cells, the cells cycled between the G0-G1 and G2/M phases (Fig. 4, Table 3). […] Compound 3 can also stop HEPG2 cells at the G0–G1% stage of the cell cycle, with an increase in the G0–G1phase fraction from 34.54 to 40.10.
The cell cycle arrests of compound 3 against HEPG2 was carried out according to Abcam method (code ab139418), (www.abcam.co.jp).

[10] = test system: normal human skin cell line (HSF); assay: one spot 100 µg/ml cytotoxicity, normal skin cell line HSF; assay type: cell-based; details: Homo sapiens; for cytotoxicity at 100 µg/mL: HSF, one spot 100 µg/ml, read-out: Inhibition percent of HSF cell line; for inhibition at 100 µg/mL: supplement Table S1, read-out: one spot concentration inhibition, HSF
HEPG2 cells [11] = assay: Annexin V-FITC/PI apoptosis assay; assay type: cell-based, human
Experimental: Showing a marked rise in overall apoptosis relative to the untreated control. […] HEPG2 cell death increases by 59 times following treatment with compounds 3. Therefore compound 3 has a biological mechanism that inhibits the proliferation of HEPG2 cells and has cytotoxic effects against cancer.
The Annexin-V FITC apoptosis assay of compounds 3 against HEPG2 was performed according to (BioVision Research Products (code k101-25). (www.biovision.com).

MCF7 cell line = assay: MTT in vitro cytotoxicity, MCF7; assay type: cell-based, human; details: for Selectivity Index = IC50 of HSF/ IC50 of MCF7: HSF vs MCF7; for IC50: Homo sapiens, MTT, MCF7, read-out: IC50 for MCF7 ± S.D
Experimental: as §1, §2

Structure (SMILES) | inhibition at 100 µg/mL [1] [%] | Selectivity Index = IC50 of HSF/IC50 of HEPG2 (HEPG2 cell line) | IC50 (HEPG2 cell line) [µg/mL] | inhibition at 100 µg/mL [2] [%] | IC50 (HSF) [µg/mL] | inhibition at 100 µg/mL [3] [%] | inhibition at 100 µg/mL [4] [%] | inhibition at 100 µg/mL [5] [%] | inhibition at 100 µg/mL [6] [%] | inhibition at 100 µg/mL [7] [%] | inhibition at 100 µg/mL [8] [%] | cytotoxicity at 100 µg/mL [10] [%] | inhibition at 100 µg/mL [10] [%] | Selectivity Index = IC50 of HSF/ IC50 of MCF7 (MCF7 cell line) | IC50 (MCF7 cell line) [µg/mL] | further results
CSc1nc(C)c2c(c1C#N)CC(C)(O)C(C(C)=O)C2c1cccc([N+](=O)[O-])c1 (stereo not shown) [Compound 3, 7-Acetyl-4-cyano-1,6-dimethyl-6-hydroxy-3-methylthio-8-(3-nitrophenyl)−5,6,7,8-tetrahydroisoquinoline] | 67.1 | 1.2 | 75 ± 0.063 (≈ 182 µM) | 32.9 | 96 (≈ 233 µM) | 62 | 59.2 | 67.7 | 44.3 | 71.5 | 50.6 | 52 | 50.6 | 2.9 | 33 ± 0.034 (≈ 80.2 µM) | cell cycle arrest phase (HEPG2 cells [9]; HEPG2): G2/M phase; also recorded: G0-G1, G2/M phases; %G2/M (HEPG2 cells [9]; HEPG2, 48 h at IC50 75 µg/ml, control 12.12): 25.67%; %S (HEPG2 cells [9]; HEPG2, 48 h at IC50 75 µg/ml, control 23.51): 22.10%; %G0–G1 (HEPG2 cells [9]; HEPG2, 48 h at IC50 75 µg/ml, control 34.54): 40.1%; Apoptosis Early (HEPG2 cells [11]; HEPG2, control 0.2): 13.45%; Apoptosis Late (HEPG2 cells [11]; HEPG2, control 0.31): 16.78%; Necrosis (HEPG2 cells [11]; HEPG2, control 1.36): 2.96%; Apoptosis Total (HEPG2 cells [11]; HEPG2, control 1.87): 33.19%; fold increase in HEPG2 cell line apoptosis (HEPG2 cells [11]; relative to untreated control): 59 fold
CC(=O)C1C(c2cccc([N+](=O)[O-])c2)c2c(C)nc3sc(C(=O)Nc4nc5ccccc5s4)c(N)c3c2CC1(C)O (stereo not shown) [Compound 10, 7-Acetyl-1-amino-N-(benzthiazol-2-yl)−5,8-dimethyl-8-hydroxy-6-(3-nitrophenyl)−6,7,8,9-tetrahydrothieno[2,3-c]isoquinoline-2-carboxamide] | 59.2 |  | > 100 | 21.8 | 89 (≈ 151 µM) | 63.3 | 60.6 | 55.2 | 46.7 | 75.4 | 47.4 | 56 | 54.7 |  | > 100 | 
COc1cccc2c1C(=O)c1c(O)c3c(c(O)c1C2=O)C[C@@](O)(C(=O)CO)C[C@@H]3O[C@H]1C[C@H](N)[C@H](O)[C@H](C)O1 [Doxorubicin, reference compound] | 70.9 | 20.1 | 4.13 ± 0.054 (≈ 7.6 µM) | 52.8 | 83 (≈ 153 µM) | 72.9 | 74.8 | 58.9 | 63.8 | 74 | 32 | 60 | 58.9 | 18.1 | 4.58 ± 0.081 (≈ 8.43 µM) | 
